Measurements as given in patent US10155004B2, “17-hydroxy-17-pentafluoroethyl-estra-4,9(10)-dien-11-aryl derivatives, method of production thereof and use thereof for the treatment of diseases” (BAYER INTELLECTUAL PROPERTY GMBH, priority 2009, dated 2018).

Assay: Metabolic stability in human liver microsomes (HLM)
Format: in vitro ADME
Conditions: from HLM half-life, well-stirred model, phase I reactions; 1 μM, 0.5 mg/ml protein
Procedure: EXAMPLE 18 METABOLIC STABILITY OF (11β,17β)-17-HYDROXY-11[4-(METHYLSULPHONYL)PHENYL]-17-(PENTAFLUOROETHYL)ESTRA-4,9-DIEN-3-ONE AND (11β,17β)-17-HYDROXY-11-[4′-(METHYLSULPHONYL)-BIPHENYL-4-YL]-17-(PENTAFLUOROETHYL)ESTRA-4,9-DIEN-3-ONE IN HUMAN LIVER MICROSOMES (HLM)
Isolated human liver microsomes (HLM) were used for assessing the metabolic stability of compounds of general formula I.
Incubations were carried out with 2.4 ml of HLM solution (0.5 mg/ml protein content), 30 μl of the test compound (final concentration 1 μM) and 0.6 ml of the cofactor mixture (=NADPH-generating system of 3 IU glucose-6-phosphate dehydrogenase, 14.6 mg glucose-6-phosphate, 1.2 mg NADP) at 37° C. in 100 mM phosphate buffer at pH 7.4. Samples are taken at 6 time points (2-60 min), precipitated with an equal volume of methanol and the recovery of the test substances used in the supernatant is determined by LC-MS/MS analysis. The intrinsic clearance of the substance in the liver microsome preparation can be calculated from the half-life found for the breakdown of the substance. Based on this, together with various physiological characteristics according to the well-stirred model, it is then possible to predict a (metabolic) in vivo clearance with respect to phase I reactions. […]

C[C@]12C[C@H](c3ccc(S(C)(=O)=O)cc3)C3=C4CCC(=O)C=C4CC[C@H]3[C@@H]1CC[C@@]2(O)C(F)(F)C(F)(F)F [Example 4, (11β,17β)-17-Hydroxy-11-[4-(methylsulphonyl)phenyl]-17-(pentafluoroethyl)estra-4,9-dien-3-one]
(metabolic) in vivo clearance in humans predicted: 1.7 mL/min/kg
